Source: patent publication US4343807A, “Derivatives of clavulanic acid, a process for their preparation and their use” (Beecham Group Limited, priority 1979, dated 1982)
Converted amounts (≈) assume the structure as drawn.

Experiments:
Type in all cases: cell-based
Kleb Aergenes E70 = assay: MIC by standard microtitre technique (dilution in tryptone soy broth); conditions: Klebsiella aerogenes, substance alone
Method: (§1) By a standard microtitre technique the MIC values for ampicillin alone, ampicillin and 9-N-(2-N-morpholinoethyl)aminodeoxyclavulanic acid and 9-N-(2-N-morpholinoethyl)aminodeoxyclavulanic acid alone were determined.
(§2) MIC μg/ml (dilution in tryptone soy broth)
(§3) By a standard microtitre technique the MIC values for ampicillin alone, ampicillin and 9-N-[3'-N-(2"-pyrrolidinoyl)propyl]aminodeoxyclavulanic acid and 9-N[3'-N-(2"-pyrrolidinoyl)propyl]aminodeoxyclavulanic acid alone were determined.

E. Coli JT39 = assay: as above; conditions: Escherichia coli, substance alone
Method: as §1, §2, §3

Staph. Aureus Russell [1] = assay: as above; conditions: Staphylococcus aureus, substance alone
Method: as §1, §2, §3

Strep. pyogenes = assay: Antibacterial activity, MIC (dilution in blood agar-heavy inoculum); conditions: Streptococcus pyogenes
Excerpt: (§4) Antibacterial activity of 9-N-[3'-N-(2"-pyrrolidinonyl)propyl]aminodeoxyclavulanic acid
(§5) Dilution in blood agar-heavy inoculum

Staph. aureus Oxford = assay: as above; conditions: Staphylococcus aureus
Excerpt: as §4, §5

Staph. Aureus Russell [2] = assay: as above; conditions: Staphylococcus aureus
Excerpt: as §4, §5

Strep. pneumoniae = assay: as above; conditions: Streptococcus pneumoniae
Excerpt: as §4, §5

CC1(C)S[C@@H]2[C@H](NC(=O)[C@H](N)c3ccccc3)C(=O)N2[C@H]1C(=O)O [Ampicillin, reference compound]
MIC (Kleb Aergenes E70): 1000 µg/mL (≈ 2860 µM) | MIC (E. Coli JT39): > 2000 µg/mL | MIC (Staph. Aureus Russell [1]): 1000 µg/mL (≈ 2860 µM)

O=C(O)[C@H]1/C(=C/CNCCCN2CCCC2=O)O[C@@H]2CC(=O)N21 [Example 2, 9-N[3'-N-(2"-Pyrrolidinonyl)propyl]aminodeoxyclavulanic acid]
MIC (Kleb Aergenes E70): 500 µg/mL (≈ 1550 µM) | MIC (E. Coli JT39): 62 µg/mL (≈ 192 µM) | MIC (Staph. Aureus Russell [1]): 16 µg/mL (≈ 49.5 µM) | MIC (Strep. pyogenes): 1.25 µg/mL (≈ 3.87 µM) | MIC (Staph. aureus Oxford): 5 µg/mL (≈ 15.5 µM) | MIC (Staph. Aureus Russell [2]): 5 µg/mL (≈ 15.5 µM) | MIC (Strep. pneumoniae): 5 µg/mL (≈ 15.5 µM)

O=C(O)[C@H]1/C(=C/CNCCN2CCOCC2)O[C@@H]2CC(=O)N21 [Example 1, 9-N-(2'-N-Morpholinoethyl)aminodeoxyclavulanic acid]
MIC (Kleb Aergenes E70): 500 µg/mL (≈ 1610 µM) | MIC (E. Coli JT39): 62 µg/mL (≈ 199 µM) | MIC (Staph. Aureus Russell [1]): 16 µg/mL (≈ 51.4 µM)
